Source: EP3134439B1, “ANTI-PSYK ANTIBODY MOLECULES AND USE OF SAME FOR SYK-TARGETED THERAPY” (Millennium Pharmaceuticals, Inc., priority 2014, dated 2015)
Marks after values point to notes of the source that are not given here.

What was measured:
VEGFR = VEGFR enzyme inhibition; format: biochemical
DLBCL cell lines = test: Inhibition of cellular proliferation; format: cell-based; conditions: subset of relevant models
[1] = system: PHTX-95L primary DLBCL tumor xenografts; test: Anti-tumor activity, PHTX-95L xenograft model; format: in vivo, SCID mice
From the text: (§1) Mean tumor volumes (mm^3) ± SEM (N=8/group) are shown where treatment was initiated when mean tumor volume was approximately 200 mm3.

[2] = system: OCI-LY10 ABC DLBCL xenografts; test: Anti-tumor activity, OCI-LY10 xenograft model; format: in vivo, SCID mice
From the text: as §1

HBL-1 (ABC) = test: Anti-tumor activity, HBL-1 xenograft model; format: in vivo
TMD8 (ABC) = test: Anti-tumor activity, TMD8 xenograft model; format: in vivo; conditions: 60 mg/kg; TGI calculated on Day 14
WSU = test: Anti-tumor activity, WSU xenograft model; format: in vivo
[3] = system: OCI-LY19 GCB DLBCL xenografts; test: Anti-tumor activity, OCI-LY19 xenograft model; format: in vivo, SCID mice
From the text: as §1

[4] = 60 mg/kg orally once daily for 21 days
[5] = 120 mg/kg orally once daily for 21 days
[6] = daily oral administration of 60 mg/kg

Cn1cc(-c2nc(N[C@@H]3CCCC[C@@H]3N)c(F)c3c2C(=O)NC3)cn1 [Compound A, 6-((1R,2S)-2-Aminocyclohexylamino)-7-fluoro-4-(1-methyl-1H-pyrazol-4-yl)-1H-pyrrolo[3,4-c]pyridin-3(2H)-one]
IC50 (VEGFR): 140 nM | EC50 (DLBCL cell lines): 25 to 400 nM | TGI [1, 4]: 56% | TGI [1, 5]: 70% | TGI ([1]; daily oral administration, 120 mg/kg): 70% | TGI [2, 4]: 50% | TGI [2, 5]: 59% | TGI [2, 6]: 50% | TGI (HBL-1 (ABC); 60 mg/kg): 32% | TGI (HBL-1 (ABC); 120 mg/kg): 36% | TGI (TMD8 (ABC)): 45%* | TGI (WSU; 60 mg/kg): 52% | TGI (WSU; [6]): approximately 50% | TGI ([3]; 60 mg/kg orally once daily for 14 days, TGI calculated on Day 16): 33%** | TGI [3, 6]: 37%
